From article PMC6259611, “Comparative Anti-Infectious Bronchitis Virus (IBV) Activity of (-)-Pinene: Effect on Nucleocapsid (N) Protein” (Molecules, 2011)
Where “and” joins values, the source holds several entries; their conditions need not be identical. Equal values may be shown once.

Tests used:
[1] = test system: Vero-E6 cells; assay: in vitro; conditions: Vero cells, 72 h, MTT
Procedure: (§1) Vero-E6 (African green monkey kidney cells) was purchased from Harbin Veterinary Research Institute (Harbin, P. R. China). The cells were grown in monolayer culture with Dulbecco’s modified Eagle’s medium (DMEM) supplemented with 10% fetal calf serum (FCS), 100 U/mL penicillin and 100 μg/mL streptomycin. The monolayers were removed from their plastic surfaces and serially passaged whenever they became confluent. Cells were plated out onto 96-well culture plates for cytotoxicity and anti-IBV assays, and propagated at 37 °C in an atmosphere of 5 % CO2.
(§2) The supernatants were discarded, washed with PBS twice and MTT reagent (5 mg/mL in PBS) was added to each well, after incubated at 37 °C for 4 h, remove the supernatants, then 200 μL DMSO was added and incubated at 37 °C for another 30 min. After that the plates were read on an ELISA reader (Thermo Molecular Devices Co., Union City, USA) at 570/630 nm. The mean OD of the cell control wells was assigned a value of 100%. The maximal non-toxic concentration (TD0) and 50% cytotoxic concentration (CC50) were calculated by linear regression analysis of the dose-response curves generated from the data.

[2] = in vitro; conditions: African green monkey
Procedure: as §1, §2

[3] = test system: IBV (Gray strain)
Procedure: The compound was aspirated and cells were washed immediately before the IBV inoculum was added. […] For analyzing the anti-IBV inhibition during the adsorption period, the same amount of IBV was mixed with the drug and added to the cells immediately. After 1h of adsorption at 37 °C, the inoculum was removed and DMEM supplemented with 2% FCS were added to the cells. […] Each assay was run in eight replicates. Ribavirin was used as a positive control.

[4] = test system: IBV (Gray strain); assay: Anti-IBV activity (inhibition of virus replication, MTT method); format: cell-based, Infectious bronchitis virus; conditions: Avian coronavirus, Vero, 72 h
Procedure: The IBV Gray strain was purchased from National Control Institute of Veterinatory Bioproducts and Pharmaceuticals (Beijing, P. R. China). Virus was routinely grown on Vero-E6 cells. IBV-Gray stock cultures were prepared from supernatants of infected cells and stored at −80 °C.
Inhibition of virus replication was measured by MTT method. Serial dilution of the treated virus was adsorbed to the cells for 1 h at 37 °C. The residual inoculum was discared and infected cells were added with DMEM containing 2% FCS. Each assay was performed in eight replicates. After incubation for 72 h at 37 °C, the cultures were measured by MTT method as described above.

SMILES	TD0 (maximum noncytotoxic concentration) [1]	CC50 at 72 h [2]	inhibition [3]	IC50 [4]
C=C1CCC2CC1C2(C)C (stereo not drawn) [(-)-β-pinene]	6.09 ± 0.31 mM	> 10 mM	81% and 55.4%	1320 ± 110 µM
CC1=CCC2CC1C2(C)C (stereo not drawn) [(-)-α-pinene]		> 10 mM	87% and 67.6%	980 ± 250 µM
NC(=O)c1ncn([C@@H]2O[C@H](CO)[C@@H](O)[C@H]2O)n1 [Ribavirin, ribavirin, reference compound]		> 1 mM	90.2 ± 2.8%	118 ± 20 µM
